# Experimental data taken from ChEMBL document CHEMBL1127926, “Preparation and antitumor activity of [N-alkyl-Ala2]RA-VII, antitumor cyclic hexapeptide” (Bioorg Med Chem Lett, 1994).
# Assays:
# Mus musculus [1] = experiment: Antitumor activity against P388 leukemia cells was determined in mice at a dose 1.6 mg/kg administered i.p. on days 1-5; assay type: functional; conditions: route intraperitoneal
# Mus musculus [2] = experiment: Antitumor activity against P388 leukemia cells was determined in mice at a dose 6.25 mg/kg administered i.p. on days 1-5; assay type: functional; conditions: route intraperitoneal
# Mus musculus [3] = experiment: Antitumor activity against P388 leukemia cells was determined in mice at a dose 12.5 mg/kg administered i.p. on days 1-5; assay type: functional; conditions: route intraperitoneal
# P388 = experiment: Cytotoxicity in murine lymphocytic leukemia (P388) cells; assay type: functional, cell-based; conditions: Mus musculus
# Mus musculus [4] = experiment: Antitumor activity against P388 leukemia cells was determined in mice at a dose 0.4 mg/kg administered i.p. on days 1-5; assay type: functional; conditions: route intraperitoneal
# KB = experiment: Cytotoxicity in human epidermoid carcinoma of the nasopharynx(KB) cells; assay type: functional, cell-based
# Mus musculus [5] = experiment: Antitumor activity against P388 leukemia cells was determined in mice at a dose 0.8 mg/kg administered i.p. on days 1-5; assay type: functional; conditions: route intraperitoneal
# Mus musculus [6] = experiment: Antitumor activity against P388 leukemia cells was determined in mice at a dose 6.25 mg/kg administered i.p. on days 1-5; Toxic; assay type: functional, organism-based; parameters: dose 6.25 mg/kg
# Mus musculus [7] = experiment: Antitumor activity against P388 leukemia cells was determined in mice at a dose 3.13 mg/kg administered i.p. on days 1-5; assay type: functional; conditions: route intraperitoneal
# Mus musculus [8] = experiment: Antitumor activity against P388 leukemia cells was determined in mice at a dose 25.0 mg/kg administered i.p. on days 1-5; assay type: functional; conditions: route intraperitoneal
SMILES,T/C (Mus musculus [1]),T/C (Mus musculus [2]),IC50 (P388),T/C (Mus musculus [4]),IC50 (KB),other results
COc1ccc(C[C@H]2C(=O)N[C@@H](C)C(=O)N(C)[C@H]3Cc4ccc(cc4)Oc4cc(ccc4OC)C[C@@H](C(=O)N[C@H](C)C(=O)N(CC=C(C)C)[C@@H](C)C(=O)N2C)N(C)C3=O)cc1,132%,160%,5.8 ng/mL,123%,0.0064 µg/mL,T/C (Mus musculus [3]): 174%
C/C=C/CN1C(=O)[C@@H](C)NC(=O)[C@@H]2Cc3ccc(OC)c(c3)Oc3ccc(cc3)C[C@@H](C(=O)N2C)N(C)C(=O)[C@H](C)NC(=O)[C@H](Cc2ccc(OC)cc2)N(C)C(=O)[C@@H]1C,127%,155%,7.6 ng/mL,112%,0.018 µg/mL,
CCN1C(=O)[C@@H](C)NC(=O)[C@@H]2Cc3ccc(OC)c(c3)Oc3ccc(cc3)C[C@@H](C(=O)N2C)N(C)C(=O)[C@H](C)NC(=O)[C@H](Cc2ccc(OC)cc2)N(C)C(=O)[C@@H]1C,,,35 ng/mL,,0.035 µg/mL,
CCCCCN1C(=O)[C@@H](C)NC(=O)[C@@H]2Cc3ccc(OC)c(c3)Oc3ccc(cc3)C[C@@H](C(=O)N2C)N(C)C(=O)[C@H](C)NC(=O)[C@H](Cc2ccc(OC)cc2)N(C)C(=O)[C@@H]1C,,,18 ng/mL,,0.063 µg/mL,
CC/C=C/CN1C(=O)[C@@H](C)NC(=O)[C@@H]2Cc3ccc(OC)c(c3)Oc3ccc(cc3)C[C@@H](C(=O)N2C)N(C)C(=O)[C@H](C)NC(=O)[C@H](Cc2ccc(OC)cc2)N(C)C(=O)[C@@H]1C,125%,155%,10 ng/mL,113%,0.022 µg/mL,
COc1ccc(C[C@H]2C(=O)N[C@@H](C)C(=O)N(C)[C@H]3Cc4ccc(cc4)Oc4cc(ccc4OC)C[C@@H](C(=O)N[C@H](C)C(=O)N[C@@H](C)C(=O)N2C)N(C)C3=O)cc1,152%,,1.3 ng/mL,144%,0.0023 µg/mL,T/C (Mus musculus [5]): 144%; Activity (Mus musculus [6]): Toxic; T/C (Mus musculus [7]): 163%
COc1ccc(C[C@H]2C(=O)N[C@@H](C)C(=O)N(C)[C@H]3Cc4ccc(cc4)Oc4cc(ccc4OC)C[C@@H](C(=O)N[C@H](C)C(=O)N(C/C=C/c4ccccc4)[C@@H](C)C(=O)N2C)N(C)C3=O)cc1,,,9.4 ng/mL,,0.03 µg/mL,
CCCN1C(=O)[C@@H](C)NC(=O)[C@@H]2Cc3ccc(OC)c(c3)Oc3ccc(cc3)C[C@@H](C(=O)N2C)N(C)C(=O)[C@H](C)NC(=O)[C@H](Cc2ccc(OC)cc2)N(C)C(=O)[C@@H]1C,,,3.2 ng/mL,,0.0097 µg/mL,
CCCCN1C(=O)[C@@H](C)NC(=O)[C@@H]2Cc3ccc(OC)c(c3)Oc3ccc(cc3)C[C@@H](C(=O)N2C)N(C)C(=O)[C@H](C)NC(=O)[C@H](Cc2ccc(OC)cc2)N(C)C(=O)[C@@H]1C,,,10 ng/mL,,0.024 µg/mL,
COc1ccc(C[C@H]2C(=O)N[C@@H](C)C(=O)N(C)[C@H]3Cc4ccc(cc4)Oc4cc(ccc4OC)C[C@@H](C(=O)N[C@H](C)C(=O)N(C)[C@@H](C)C(=O)N2C)N(C)C3=O)cc1,,,1.2 ng/mL,,0.0077 µg/mL,
COc1ccc(C[C@H]2C(=O)N[C@@H](C)C(=O)N(C)[C@H]3Cc4ccc(cc4)Oc4cc(ccc4OC)C[C@@H](C(=O)N[C@H](C)C(=O)N(C/C=C(\C)CCC=C(C)C)[C@@H](C)C(=O)N2C)N(C)C3=O)cc1,131%,148%,44 ng/mL,119%,0.062 µg/mL,T/C (Mus musculus [8]): 164%
C=CCN1C(=O)[C@@H](C)NC(=O)[C@@H]2Cc3ccc(OC)c(c3)Oc3ccc(cc3)C[C@@H](C(=O)N2C)N(C)C(=O)[C@H](C)NC(=O)[C@H](Cc2ccc(OC)cc2)N(C)C(=O)[C@@H]1C,,,15 ng/mL,,0.013 µg/mL,
C=C(C)CN1C(=O)[C@@H](C)NC(=O)[C@@H]2Cc3ccc(OC)c(c3)Oc3ccc(cc3)C[C@@H](C(=O)N2C)N(C)C(=O)[C@H](C)NC(=O)[C@H](Cc2ccc(OC)cc2)N(C)C(=O)[C@@H]1C,,,9 ng/mL,,0.027 µg/mL,
